# In patent US20260092037A1, “CRYSTALLINE SALT FORMS OF N-((1-(2-(TERT-BUTYLAMINO)-2-OXOETHYL)PIPERIDIN-4-YL) METHYL)-3-CHLORO-5-FLUOROBENZAMIDE AND METHODS OF USE THEREOF” (priority 2023, published 2026):
# Read-outs that look alike come from different tables or passages of the source.
# Legend:
# [1] = X-ray powder diffraction (XRPD) of salt screen and scale-up products; format: physicochemical; conditions: salt screen
# Description: The Rigaku Smart-Lab X-ray diffraction system was configured for reflection Bragg-Brentano geometry using a line source X-ray beam. The x-ray source is a Cu Long Fine Focus tube that was operated at 40 kV and 44 ma. That source provides an incident beam profile at the sample that changes from a narrow line at high angles to a broad rectangle at low angles. Beam conditioning slits are used on the line X-ray source to ensure that the maximum beam size is less than 10 mm both along the line and normal to the line. The Bragg-Brentano geometry is a para-focusing geometry controlled by passive divergence and receiving slits with the sample itself acting as the focusing component for the optics. The inherent resolution of Bragg-Brentano geometry is governed in part by the diffractometer radius and the width of the receiving slit used. Typically, the Rigaku Smart-Lab is operated to give peak widths of 0.1° 2θ or less. The axial divergence of the X-ray beam is controlled by 5.0-degree Soller slits in both the incident and diffracted beam paths.
# Powder samples were prepared in a low background Si holder using light manual pressure to keep the sample surfaces flat and level with the reference surface of the sample holder. Each sample was analyzed from 2 to 40° 2θ using a continuous scan of 6° 2θ per minute with an effective step size of 0.02° 2θ.
# [2] = tested on: absence seizures; conditions: childhood absence epilepsy, cited from earlier work
# [3] = at 16 weeks, as assessed by video-EEG recordings
compound,measurement,setting,value
Tartrate,XRPD Pattern,"[1]; Grind, IPA",API A + acid + NC
Gluconate,XRPD Pattern,"[1]; E, MeOH/toluene (1:1), RT",API A
same,XRPD Pattern,"[1]; Grind, ACN",API A
same,XRPD Pattern,"[1]; LY, dioxane/water",API A + NC
Citrate,XRPD Pattern,"[1]; Grind, EtOAc",API A + acid + NC
O=CO [Formate],XRPD Pattern,"[1]; E (evaporation), EtOH",API A (PO)
same,XRPD Pattern,"[1]; Grind, ACN",API A
O=S(=O)(O)CCO [Isethionate],XRPD Pattern,"[1]; Grind, ACN",API A + NC
Gentisate,XRPD Pattern,"[1]; Grind, BuOAc",API A + NC
N[C@@H](CCC(=O)O)C(=O)O [Glutamate],XRPD Pattern,"[1]; Grind, ACN/water (9:1)",API A + acid
same,XRPD Pattern,"[1]; SL, ACN, 50° C.",API A + acid
Camphorate,XRPD Pattern,"[1]; E (evaporation), EtOH",API A (PO)
same,XRPD Pattern,"[1]; Grind, ACN",API A + acid
Pyroglutamate,XRPD Pattern,"[1]; Grind, MEK",API A + pks
O=C(O)CCC(=O)C(=O)O [Ketoglutarate],XRPD Pattern,"[1]; E, MeOH/ACN (1:1)",NC + pks
same,XRPD Pattern,"[1]; Grind, ACN",API A + NC
Caprylate,XRPD Pattern,"[1]; E (evaporation), EtOH",API A (PO)
same,XRPD Pattern,"[1]; Grind, ACN",API A
Laurate,XRPD Pattern,"[1]; E, MeOH",API A + acid + pks
same,XRPD Pattern,"[1]; Grind, ACN",API A + acid + pks
Stearate,XRPD Pattern,"[1]; E, MeOH",API A + acid
same,XRPD Pattern,"[1]; Grind, ACN",API A + acid
CC(=O)O [Acetate],XRPD Pattern,"[1]; E (evaporation), EtOH",API A (PO)
same,XRPD Pattern,"[1]; Grind, ACN",API A
CC(C)C(=O)O [Isobutyrate],XRPD Pattern,"[1]; E, MeOH",API A
same,XRPD Pattern,"[1]; Grind, ACN",API A
Benzoate,XRPD Pattern,"[1]; E (evaporation), EtOH",API A + NC
same,XRPD Pattern,"[1]; Grind, ACN",API A + NC
same,XRPD Pattern,"[1]; SL, IPE, RT",API A
Nc1nnc(-c2cccc(Cl)c2Cl)c(N)n1 [Lamotrigine],patients in whom the seizures were completely controlled,[2]; at 12 months,21%
same,patients in whom the seizures were completely controlled,[2]; [3],29%
Caprate,XRPD Pattern,"[1]; E (evaporation), EtOH",API A (PO)
same,XRPD Pattern,"[1]; Grind, ACN",API A + pks
Oleate,XRPD Pattern,"[1]; E, MeOH",API A (PO)
same,XRPD Pattern,"[1]; Grind, ACN",API A + NC
Palmitate,XRPD Pattern,"[1]; E, MeOH",API A + acid
same,XRPD Pattern,"[1]; Grind, ACN",API A + acid
Malate,XRPD Pattern,"[1]; Grind, IPA",API A + NC
Propionate,XRPD Pattern,"[1]; E, MeOH",API A
same,XRPD Pattern,"[1]; Grind, ACN",API A
Glucuronate,XRPD Pattern,"[1]; Grind, acetone",API A + pks
same,XRPD Pattern,"[1]; LY, dioxane/water",API A + NC
CCC1(C)CC(=O)NC1=O (stereo not shown) [ethosuximide],patients in whom the seizures were completely controlled,[2]; at 12 months,45%
same,patients in whom the seizures were completely controlled,[2]; [3],53%
Ascorbate,XRPD Pattern,"[1]; E (evaporation), EtOH",API A (PO)
same,XRPD Pattern,"[1]; Grind, ACN",API A + acid
Alginate,XRPD Pattern,"[1]; Grind, IPA",API A
Hippurate,XRPD Pattern,"[1]; E (evaporation), EtOH",API A + NC
same,XRPD Pattern,"[1]; Grind, IPA",API A + acid
